# According to ChEMBL document CHEMBL1201862, “PubChem BioAssay data set” (2004):
#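 Assay format: 96-well plates, 48-hour exposure. At the GI50, growth is halved.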 The source made the active and inactive calls. No stated cut-off is given here; in the data, active = GI50 up to about 1.1 µM and inactive = higher.
# Experiments:
# Test in all cases: inhibition of tumour cell growth, NCI panel, 48 h
# Malme-3M = system: Malme-3M
# HCT-15 = system: HCT-15
# SK-MEL-2 = system: SK-MEL-2
# MDA-MB-435 = system: MDA-MB-435
# IGROV-1 = system: IGROV-1
# HOP-92 = system: HOP-92
# SK-OV-3 = system: SK-OV-3
# NCI-H23 = system: NCI-H23
# SR = system: SR
# MOLT-4 = system: MOLT-4
# RPMI-8226 = system: RPMI-8226
# OVCAR-3 = system: OVCAR-3
# SW-620 = system: SW-620
# MDA-MB-231 = system: MDA-MB-231
# SK-MEL-28 = system: SK-MEL-28
# Hs-578T = system: Hs-578T
# HCC 2998 = system: HCC 2998
# HL-60 = system: HL-60
# U-251 = system: U-251
# BT-549 = system: BT-549
SMILES,GI50 (Malme-3M),GI50 (HCT-15),GI50 (SK-MEL-2),GI50 (MDA-MB-435),GI50 (IGROV-1),GI50 (HOP-92),GI50 (SK-OV-3),GI50 (NCI-H23),GI50 (SR),GI50 (MOLT-4),GI50 (RPMI-8226),GI50 (OVCAR-3),GI50 (SW-620),GI50 (MDA-MB-231),GI50 (SK-MEL-28),GI50 (Hs-578T),GI50 (HCC 2998),GI50 (HL-60),GI50 (U-251),GI50 (BT-549)
CC(=O)OC12COC1CC(O)C1(C)C(=O)C(O)C3=C(C)C(O)CC(O)(C(OC(=O)c4ccccc4)C21)C3(C)C (configuration not stated),3.78 µM (inactive),> 100 µM,1.55 µM (inactive),0.408 µM (active),7.23 µM (inactive),> 100 µM (inactive),2.31 µM (inactive),3.36 µM (inactive),5.12 µM (inactive),6.7 µM (inactive),1.25 µM (inactive),2.55 µM (inactive),0.989 µM (active),7.91 µM (inactive),3.38 µM (inactive),0.778 µM (active),4.08 µM (inactive),2.52 µM (inactive),0.65 µM (active),
O=C1Cc2c([nH]c3ccc(Br)cc23)-c2cc(Br)ccc2N1,,> 100 µM,> 100 µM (inactive),> 100 µM (inactive),,> 100 µM (inactive),> 100 µM (inactive),> 100 µM (inactive),,86.3 µM (inactive),> 100 µM (inactive),,> 100 µM (inactive),> 100 µM (inactive),> 100 µM (inactive),,> 100 µM (inactive),,> 100 µM (inactive),> 100 µM (inactive)
CC(C)(C)OC/C=C(/CO)[C@@H]1C=C[C@H](O)C1,> 100 µM (inactive),> 100 µM,> 100 µM (inactive),> 100 µM (inactive),,,> 100 µM (inactive),> 100 µM (inactive),,> 100 µM (inactive),> 100 µM (inactive),> 100 µM (inactive),> 100 µM (inactive),> 100 µM (inactive),> 100 µM (inactive),,> 100 µM (inactive),,> 100 µM (inactive),> 100 µM (inactive)
CC(C)CCNC(=O)c1ccc(CNC(=O)/C=C/c2ccc(-c3ccccc3[N+](=O)[O-])o2)cc1,,> 100 µM,95.7 µM (inactive),34.9 µM (inactive),,> 10 µM (inactive),> 100 µM (inactive),82.8 µM (inactive),91.8 µM (inactive),> 100 µM (inactive),96.8 µM (inactive),94.8 µM (inactive),41.5 µM (inactive),> 100 µM (inactive),16.6 µM (inactive),,> 100 µM (inactive),11.6 µM (inactive),56.8 µM (inactive),
CC1=CCC[C@]2(C)C1=CC(=O)O[C@H]2c1ccoc1,> 100 µM (inactive),> 100 µM,> 100 µM (inactive),> 100 µM (inactive),> 100 µM (inactive),> 100 µM (inactive),> 100 µM (inactive),> 100 µM (inactive),> 100 µM (inactive),> 100 µM (inactive),> 100 µM (inactive),> 100 µM (inactive),> 100 µM (inactive),> 100 µM (inactive),> 100 µM (inactive),> 100 µM (inactive),> 100 µM (inactive),49.8 µM (inactive),> 100 µM (inactive),
Nc1ccc2c(=O)cc(-c3ccc(Br)s3)[nH]c2n1,12.4 µM (inactive),2.26 µM,> 100 µM (inactive),0.32 µM (active),3.85 µM (inactive),12.7 µM (inactive),3.94 µM (inactive),2.22 µM (inactive),0.267 µM (active),2.33 µM (inactive),1.89 µM (inactive),3.18 µM (inactive),1.12 µM (active),16.8 µM (inactive),3.08 µM (inactive),2.36 µM (inactive),3.39 µM (inactive),2.41 µM (inactive),3.61 µM (inactive),
